# Molecular target: T1, human Nav1.7 channels (Homo sapiens, UniProt Q15858)
# T1 construct: expressed in transfected cells; host or cells: CHO
# Test: FRET assay, human Nav1.7 (EFS on FDSS)
# Format: cell-based
# Conditions: CHO cells expressing human Nav1.7, read-out: IC50 against Nav1.7
# Procedure: The inhibitory activities of compounds against voltage gated sodium channels are determined by methodology well known in the art.
# The ability of the aryl substituted carboxamide derivatives of the formula (I) to inhibit the NaV1.3, Nav1.7 and Nav1.5 channels is measured by Fluorescence Resonance Energy Transfer (FRET) assay and electrophysiology assay described below.
# This screen is used to determine the effects of compounds on human Nav1.3, human Nav1.7, and human Nav1.5 channels, utilising electrical field stimulation (EFS) system in 96-well plate format on FDSS (Hamamatsu Photonics) platform. The change of membrane potential is monitored with FRET dye pair, oxonol (DiSBAC2(3)) and coumarin (CC2-DMPE).
# CHO cells expressing human Nav1.7 channels are grown in T225 flasks, in a 5% CO2 humidified incubator to about 80% confluence. Media composition consists of HAM/F12 with Glutamax 1.10% FCS, 100 units/mL Penicillin and 100 microgram/mL Hygromycin.
# Protocol: • Seed each cell lines (1×10^5 cells/well) into poly-D-lysine coated 96-well plates prior to experimentation. • Incubate at 37° C. in 5% CO2 for 24 hours. • Wash each well with assay buffer (140 mM NaCl, 4.5 mM KCl, 10 mM D-Glucose, 2 mM CaCl2, 1 mM MgCl2, 10 mM HEPES, pH 7.4 adjusted with NaOH) twice. • Add 1st loading solution containing 10 microM CC2-DMPE and 0.06% Pluronic F-127 in assay buffer. • Incubate the plate at room temperature in dark for 1 hour. • Remove 1st loading solution and added 2nd loading solution containing 15 microM DiSBAC2(3), 0.555 mM VABSC-1 and 0.004% Pluronic F-127 in assay buffer. • Place the plate under the dark at room temperature for 25 minutes. • Add compound solutions into the assay plate. • Set the assay plate in FDSS and placed an EFS device on the plate. • Measure EFS-induced fluorescent response by FDSS.
# The data are analyzed and reported as normalized ratios of intensities measured at […]. The process of calculating these ratios is performed as follows:
# This analysis is performed using a computerized specific program designed for FDSS generated data. Fluorescence ratio values are plotted using XLfit to determine an IC50 value for each compound.
# T1 sequence (Q15858 whole entry): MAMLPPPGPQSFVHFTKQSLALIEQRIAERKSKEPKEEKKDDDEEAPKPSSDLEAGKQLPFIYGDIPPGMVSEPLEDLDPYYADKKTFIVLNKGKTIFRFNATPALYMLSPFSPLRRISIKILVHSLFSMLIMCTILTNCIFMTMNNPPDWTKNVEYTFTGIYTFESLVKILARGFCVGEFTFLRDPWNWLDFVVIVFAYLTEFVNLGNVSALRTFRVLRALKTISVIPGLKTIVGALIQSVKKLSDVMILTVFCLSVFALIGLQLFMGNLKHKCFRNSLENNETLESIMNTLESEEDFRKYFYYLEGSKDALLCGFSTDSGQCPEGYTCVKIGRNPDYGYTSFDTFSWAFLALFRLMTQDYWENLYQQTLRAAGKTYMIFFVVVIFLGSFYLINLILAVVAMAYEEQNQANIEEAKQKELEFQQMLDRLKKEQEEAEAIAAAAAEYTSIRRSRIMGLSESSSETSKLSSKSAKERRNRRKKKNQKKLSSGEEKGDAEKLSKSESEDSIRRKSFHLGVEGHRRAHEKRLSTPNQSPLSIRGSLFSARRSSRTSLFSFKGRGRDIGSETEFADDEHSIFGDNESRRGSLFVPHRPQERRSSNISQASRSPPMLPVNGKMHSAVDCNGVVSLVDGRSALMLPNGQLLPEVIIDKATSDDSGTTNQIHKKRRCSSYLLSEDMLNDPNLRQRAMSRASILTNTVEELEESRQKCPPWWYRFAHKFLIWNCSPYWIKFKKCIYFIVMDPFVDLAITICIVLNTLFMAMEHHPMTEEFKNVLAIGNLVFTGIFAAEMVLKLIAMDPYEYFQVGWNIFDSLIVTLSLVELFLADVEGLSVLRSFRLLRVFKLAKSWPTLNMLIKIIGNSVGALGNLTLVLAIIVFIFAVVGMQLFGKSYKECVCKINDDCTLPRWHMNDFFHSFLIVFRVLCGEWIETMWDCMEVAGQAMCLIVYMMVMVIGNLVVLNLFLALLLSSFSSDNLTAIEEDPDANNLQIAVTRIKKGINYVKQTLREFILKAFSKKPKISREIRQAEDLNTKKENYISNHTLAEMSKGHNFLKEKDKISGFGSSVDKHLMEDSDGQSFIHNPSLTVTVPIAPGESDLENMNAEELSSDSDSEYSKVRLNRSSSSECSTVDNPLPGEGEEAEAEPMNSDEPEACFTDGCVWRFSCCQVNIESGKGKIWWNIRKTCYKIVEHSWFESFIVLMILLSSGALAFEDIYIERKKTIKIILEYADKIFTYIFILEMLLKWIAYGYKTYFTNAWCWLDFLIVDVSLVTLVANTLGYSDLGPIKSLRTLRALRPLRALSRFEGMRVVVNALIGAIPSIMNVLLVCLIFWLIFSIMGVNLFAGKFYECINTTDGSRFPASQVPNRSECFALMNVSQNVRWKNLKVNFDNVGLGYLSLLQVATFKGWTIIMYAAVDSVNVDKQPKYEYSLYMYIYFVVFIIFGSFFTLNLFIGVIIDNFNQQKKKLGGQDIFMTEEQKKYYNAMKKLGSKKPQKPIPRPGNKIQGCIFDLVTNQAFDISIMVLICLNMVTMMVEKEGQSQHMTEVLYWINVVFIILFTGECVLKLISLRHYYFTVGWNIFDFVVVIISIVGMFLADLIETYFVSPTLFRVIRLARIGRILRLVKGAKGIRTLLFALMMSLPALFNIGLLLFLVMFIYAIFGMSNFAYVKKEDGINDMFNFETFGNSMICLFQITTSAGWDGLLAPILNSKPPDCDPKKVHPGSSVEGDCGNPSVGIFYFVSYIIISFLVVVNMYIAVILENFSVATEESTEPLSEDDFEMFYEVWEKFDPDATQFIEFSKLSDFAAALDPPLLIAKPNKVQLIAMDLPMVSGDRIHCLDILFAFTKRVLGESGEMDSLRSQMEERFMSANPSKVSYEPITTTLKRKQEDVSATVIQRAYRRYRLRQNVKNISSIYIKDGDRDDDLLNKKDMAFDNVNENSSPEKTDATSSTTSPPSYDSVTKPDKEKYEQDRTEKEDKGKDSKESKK
row,Structure (SMILES),IC50 [µM]
1,"CC(=O)Nc1cc(C(=O)N[C@H](C)c2cccc(C(F)(F)F)c2)ccn1 (single isomer, unassigned) [Example 7]",< 1
2,"CC(=O)Nc1cc(C(=O)NC(C)c2cnc(OCC(F)(F)F)c(Cl)c2)ccn1 (single isomer, unassigned) [Example 52, 2-acetamido-N-(1-(5-chloro-6-(2,2,2-trifluoroethoxy)pyridin-3-yl)ethyl)isonicotinamide]",< 1
3,"CCC(=O)Nc1cc(C(=O)NC(C)c2ccc(OCC(F)(F)F)nc2)cc(C)n1 (single isomer, unassigned) [Example 60, 2-methyl-6-propionamido-N-(1-(6-(2,2,2-trifluoroethoxy)pyridin-3-yl)ethyl)isonicotinamide]",< 1
4,"CC(=O)Nc1cc(C(=O)NC(C)c2cc(C)nc(OCC(F)(F)F)c2)ccn1 (single isomer, unassigned) [Example 73, 2-acetamido-N-(1-(2-methyl-6-(2,2,2-trifluoroethoxy)pyridin-4-yl)ethyl)isonicotinamide]",< 1
5,"CCC(=O)Nc1cc(C(=O)NC(C)c2cnc(OCC(F)(F)F)c(F)c2)ccn1 (single isomer, unassigned) [Example 74, N-(1-(5-fluoro-6-(2,2,2-trifluoroethoxy)pyridin-3-yl)ethyl)-2-propionamidoisonicotinamide]",< 1
6,"CC(=O)Nc1cc(C(=O)NC(C)c2cccc(OCC(F)(F)F)c2)ccn1 (single isomer, unassigned) [Example 84, 2-acetamido-N-(1-(3-(2,2,2-trifluoroethoxy)phenyl)ethyl)isonicotinamide]",< 1
7,"CCC(=O)Nc1cc(C(=O)NC(C)c2cnc(OCC(F)(F)F)c(F)c2)cc(C)n1 (single isomer, unassigned) [Example 131, N-(1-(5-fluoro-6-(2,2,2-trifluoroethoxy)pyridin-3-yl)ethyl)-2-methyl-6-propionamidoisonicotinamide]",< 1
8,"CCC(=O)Nc1cc(C(=O)NC(CC)c2ccc(OCC(F)(F)F)nc2)cc(C)n1 (single isomer, unassigned) [Example 133, 2-methyl-6-propionamido-N-(1-(6-(2,2,2-trifluoroethoxy)pyridin-3-yl)propyl)isonicotinamide]",< 1
9,"CCC(=O)Nc1cc(C(=O)NC(C)c2ccc(OC(F)(F)F)cc2)cc(C)n1 (single isomer, unassigned) [Example 135, 2-methyl-6-propionamido-N-(1-(4-(trifluoromethoxy)phenyl)ethyl)isonicotinamide]",< 1
10,"CCC(=O)Nc1cc(C(=O)NC(C)c2ccc(OCCC(F)(F)F)nc2)cc(C)n1 (single isomer, unassigned) [Example 140, 2-methyl-6-propionamido-N-(1-(6-(3,3,3-trifluoropropoxy)pyridin-3-yl)ethyl)isonicotinamide]",< 1
11,"CCC(=O)Nc1cc(C(=O)NC(C)c2cnc(OCC(F)(F)F)c(OC)c2)ccn1 (single isomer, unassigned) [Example 142]",< 1
12,"CCC(=O)Nc1cc(C(=O)NC(C)c2cnc(OCC(F)(F)F)c(OC)c2)cc(C)n1 (single isomer, unassigned) [Example 144, N-(1-(5-methoxy-6-(2,2,2-trifluoroethoxy)pyridin-3-yl)ethyl)-2-methyl-6-propionamidoisonicotinamide]",< 1
13,"COc1cc(C(C)NC(=O)c2cc(C)nc(NC(=O)C3CC3)n2)cnc1OCC(F)(F)F (single isomer, unassigned) [Example 194, 2-(cyclopropanecarboxamido)-N-(1-(5-methoxy-6-(2,2,2-trifluoroethoxy)pyridin-3-yl)ethyl)-6-methylpyrimidine-4-carboxamide]",< 1
14,"CCC(=O)Nc1nccc(C(=O)NC(C)c2cnc(OCC(F)(F)F)c(Cl)c2)n1 (single isomer, unassigned) [Example 210, N-(1-(5-chloro-6-(2,2,2-trifluoroethoxy)pyridin-3-yl)ethyl)-2-propionamidopyrimidine-4-carboxamide]",< 1
15,"CC(NC(=O)c1ccnc(NC(=O)C2CC2)n1)c1cnc(OCC(F)(F)F)c(Cl)c1 (single isomer, unassigned) [Example 211, N-(1-(5-chloro-6-(2,2,2-trifluoroethoxy)pyridin-3-yl)ethyl)-2-(cyclopropanecarboxamido)pyrimidine-4-carboxamide]",< 1
16,"CC(C)C(=O)Nc1nccc(C(=O)NC(C)c2cnc(OCC(F)(F)F)c(Cl)c2)n1 (single isomer, unassigned) [Example 212, N-(1-(5-chloro-6-(2,2,2-trifluoroethoxy)pyridin-3-yl)ethyl)-2-isobutyramidopyrimidine-4-carboxamide]",< 1
17,"CC(NC(=O)c1ccnc(NC(=O)C2CCC2)n1)c1cnc(OCC(F)(F)F)c(Cl)c1 (single isomer, unassigned) [Example 213, N-(1-(5-chloro-6-(2,2,2-trifluoroethoxy)pyridin-3-yl)ethyl)-2-(cyclobutanecarboxamido)pyrimidine-4-carboxamide]",< 1
18,"CCC(=O)Nc1nc(C)cc(C(=O)NC(C)c2cnc(OCC(F)(F)F)c(Cl)c2)n1 (single isomer, unassigned) [Example 214, N-(1-(5-chloro-6-(2,2,2-trifluoroethoxy)pyridin-3-yl)ethyl)-6-methyl-2-propionamidopyrimidine-4-carboxamide]",< 1
19,"Cc1cc(C(=O)NC(C)c2cnc(OCC(F)(F)F)c(Cl)c2)nc(NC(=O)C(C)C)n1 (single isomer, unassigned) [Example 216, N-(1-(5-chloro-6-(2,2,2-trifluoroethoxy)pyridin-3-yl)ethyl)-2-isobutyramido-6-methylpyrimidine-4-carboxamide]",< 1
20,"CC(C)C(=O)Nc1cc(C(=O)NC(C)c2cnc(OCC(F)(F)F)c(F)c2)ccn1 (single isomer, unassigned) [Example 220, N-(1-(5-fluoro-6-(2,2,2-trifluoroethoxy)pyridin-3-yl)ethyl)-2-isobutyramidoisonicotinamide]",< 1

# Now from value to molecule:
row,IC50 [µM],Structure (SMILES)
1,< 1,"CC(NC(=O)c1ccnc(NC(=O)C2CC2)c1)c1ccc(OCC(F)(F)F)nc1 (single isomer, unassigned) [Example 9, 2-(cyclopropanecarboxamido)-N-(1-(6-(2,2,2-trifluoroethoxy)pyridin-3-yl)ethyl)isonicotinamide]"
2,< 1,"CCC(=O)Nc1cc(C(=O)NC(C)c2ccc(OCC(F)(F)F)nc2)ccn1 (single isomer, unassigned) [Example 11, 2-propionamido-N-(1-(6-(2,2,2-trifluoroethoxy)pyridin-3-yl)ethyl)isonicotinamide]"
3,< 1,"CCCC(=O)Nc1cc(C(=O)NC(C)c2ccc(OCC(F)(F)F)nc2)ccn1 (single isomer, unassigned) [Example 40, 2-butyramido-N-(1-(6-(2,2,2-trifluoroethoxy)pyridin-3-yl)ethyl)isonicotinamide]"
4,< 1,"Cc1cc(C(=O)NC(C)c2ccc(OCC(F)(F)F)nc2)cc(NC(=O)C2CC2)n1 (single isomer, unassigned) [Example 61, 2-(cyclopropanecarboxamido)-6-methyl-N-(1-(6-(2,2,2-trifluoroethoxy)pyridin-3-yl)ethyl)isonicotinamide]"
5,< 1,"CC(NC(=O)c1ccnc(NC(=O)C2CC2)c1)c1cnc(OCC(F)(F)F)c(Cl)c1 (single isomer, unassigned) [Example 79, N-(1-(5-chloro-6-(2,2,2-trifluoroethoxy)pyridin-3-yl)ethyl)-2-(cyclopropanecarboxamido)isonicotinamide]"
6,< 1,"CCC(=O)Nc1cc(C(=O)NC(C)c2ccc(OCCC(F)(F)F)nc2)ccn1 (single isomer, unassigned) [Example 115, 2-propionamido-N-(1-(6-(3,3,3-trifluoropropoxy)pyridin-3-yl)ethyl)isonicotinamide]"
7,< 1,"CC(NC(=O)c1ccnc(NC(=O)C2CC2)c1)c1ccc(OCCC(F)(F)F)nc1 (single isomer, unassigned) [Example 116, 2-(cyclopropanecarboxamido)-N-(1-(6-(3,3,3-trifluoropropoxy)pyridin-3-yl)ethyl)isonicotinamide]"
8,< 1,"COc1cc(C(C)NC(=O)c2ccnc(NC(=O)C3CC3)c2)cnc1OCC(F)(F)F (single isomer, unassigned) [Example 143, 2-(cyclopropanecarboxamido)-N-(1-(5-methoxy-6-(2,2,2-trifluoroethoxy)pyridin-3-yl)ethyl)isonicotinamide]"
9,< 1,"CC(C)C(=O)Nc1cc(C(=O)NC(C)c2ccc(OCCC(F)(F)F)nc2)ccn1 (single isomer, unassigned) [Example 186, 2-isobutyramido-N-(1-(6-(3,3,3-trifluoropropoxy)pyridin-3-yl)ethyl)isonicotinamide]"
